Source: patent US20080108513A1, “Cellular Arrays” (Northwestern University, priority 2006, published 2008)

Target: T1, ERα (Homo sapiens, UniProt P03372)
T1 sequence (P03372 1-595): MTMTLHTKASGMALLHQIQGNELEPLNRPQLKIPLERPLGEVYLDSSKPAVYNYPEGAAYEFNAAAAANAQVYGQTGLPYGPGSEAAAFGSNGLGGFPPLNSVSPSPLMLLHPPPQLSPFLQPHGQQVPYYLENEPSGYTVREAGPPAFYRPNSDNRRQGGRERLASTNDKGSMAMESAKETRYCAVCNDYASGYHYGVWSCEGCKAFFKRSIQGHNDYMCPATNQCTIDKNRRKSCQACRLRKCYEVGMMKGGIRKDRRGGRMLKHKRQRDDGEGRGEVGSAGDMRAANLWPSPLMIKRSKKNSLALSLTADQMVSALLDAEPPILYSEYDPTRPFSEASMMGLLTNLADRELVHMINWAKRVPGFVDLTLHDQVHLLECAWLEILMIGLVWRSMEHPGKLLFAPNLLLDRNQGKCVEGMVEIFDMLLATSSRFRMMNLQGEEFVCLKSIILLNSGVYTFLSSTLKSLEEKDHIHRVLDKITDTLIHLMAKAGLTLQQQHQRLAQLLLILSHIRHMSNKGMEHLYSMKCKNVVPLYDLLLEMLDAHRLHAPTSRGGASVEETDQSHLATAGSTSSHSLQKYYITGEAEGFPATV

With `C[C@]12CC[C@@H]3c4ccc(O)cc4C[C@@H](CCCCCCCCC[S+]([O-])CCCC(F)(F)C(F)(F)F)[C@H]3[C@@H]1CC[C@@H]2O` (some centres unmarked) [FUL, fulvestrant] the “blockade of ERα-stimulated activity by E2” value (10^−6 M FUL with 10^−9 M E2, MCF-7 cells on array) was “complete blockade” and the “effect on expression of the pLUC plasmid (CMV promoter)” value (MCF-7 cells on array, 10^−9 M E2 or 10^−9 M E2+10^−6 M FUL) was “lowered”.
